# According to article PMC10454409, “Hybrids of Sterically Hindered Phenols and Diaryl Ureas: Synthesis, Switch from Antioxidant Activity to ROS Generation and Induction of Apoptosis” (International Journal of Molecular Sciences, 2023):
# What was measured:
# [1] = system: M-HeLa cells (human cervix epithelioid carcinoma); experiment: MTT cytotoxicity test, M-HeLa; type: cell-based; details: Homo sapiens, M-HeLa; MTT test; 24 h incubation per text, 48 h per method
# From the text: (§1) For the experiments, we used tumor cell cultures M-HeLa clone 11 (epithelioid carcinoma of the cervix, subline HeLa., clone M-HeLa), HuTu 80 (human duodenal adenocarcinoma) and MCF7 (human breast adenocarcinoma (pleural fluid)) from the collection of the Institute of Cytology, Russian Academy of Sciences (St. Petersburg); human liver cells (Chang liver) from the collection of the Research Institute of Virology at the Russian Academy of Medical Sciences (Moscow); and SH-SY5Y (neuroblastoma)from the Laboratory of Tumor Cell Genetics at the Scientific Research Institute of Carcinogenesis N.N. Blokhin National Medical Research Center of Oncology.
# (§2) The cytotoxic effect on cells was determined using the colorimetric method of cell proliferation—the MTT test. NADP-H-dependent cellular oxidoreductase enzymes can, under certain conditions, reflect the number of viable cells. These enzymes are able to reduce the tetrazolium dye (MTT)-3-(4,5-dimethylthiazol-2-yl)-2,5-diphenyl-tetrazolium bromide to insoluble blue-violet formazan, which crystallizes inside the cell. The amount of formazan formed is proportional to the number of cells with active metabolism.
# (§3) Cells were seeded on a 96-well Nunc plate at a concentration of 5 × 10^3 cells per well in a volume of 100 μL of medium and cultured in a CO2 incubator at 37 °C until a monolayer was formed. […] After 48 h, the nutrient medium was removed from the plates and 100 µL of the nutrient medium without serum with MTT at a concentration of 0.5 mg/mL was added and incubated for 4 h at 37 °C. Formazan crystals were […] 100 µL of DMSO in each well. Optical density was recorded at 540 nm on an in vitro logic microplate reader (Russia). The experiments for all compounds were repeated in triplicate.
# (§4) IC50 values were estimated using the Quest Graph IC50 Calculator (AAT Bioquest, Inc., Sunnyvale, CA, USA) (Version 2022) (accessed on 25 June 2022).
# [2] = system: MCF-7 cells (human breast adenocarcinoma); experiment: MTT cytotoxicity test, MCF-7; type: cell-based; details: Homo sapiens, MCF7, MTT test; 24 h incubation per text, 48 h per method
# Description: as §2
# Formazan crystals were added to 100 µL of DMSO in each well. Optical density was recorded at 540 nm on an in vitro logic microplate reader (Russia). The experiments for all compounds were repeated in triplicate.
# [3] = system: SH-SY5Y cells (neuroblastoma); experiment: MTT cytotoxicity test, SH-SY5Y; type: cell-based; details: Homo sapiens, SH-SY5Y; MTT test; 24 h incubation per text, 48 h per method
# From the text: as §1, §2, §3, §4
# [4] = system: HuTu 80 cells (human duodenal adenocarcinoma); experiment: MTT cytotoxicity test, HuTu 80; type: cell-based; details: Homo sapiens, HuTu80, read-out: IC50, HuTu 80
# From the text: as §1, §2, §3, §4
# [5] = Cyclic voltammetry; type: physicochemical; details: in CH3CN vs. Ag/AgCl; GC electrode; 0.1 V/s
# From the text: Electrochemical measurements were taken on a BASi Epsilon EClipse electrochemical analyzer (West Lafayette, IN, USA). The program concentrated cEpsilon-ECUSB-V200 waves at the potential scan rate t = […] in a CH3CN 0.1 M solution of Bu4NBF4 at 295 K. A glassy carbon working electrode (ð = 3 mm) embedded in Teflon and a Pt wire as the counter electrode were used in the electrochemical cell. Before each measurement, the surface of the working electrode was mechanically polished. Ag/AgCl (0.01 M KCl) was used as a reference electrode. The reference electrode was connected with the cell solution by a modified Luggin capillary filled with the supporting electrolyte solution (0.1 M Bu4NBF4 in CH3CN). Thus, the reference electrode assembly had two compartments, each terminated with an ultra-fine glass frit to separate the AgCl from the analyte. The scan rate was 100 mV∙s^−1. The measurements were performed in a temperature-controlled electrochemical cell (volume from 5 mL to 20 mL) in an inert gas atmosphere (N2).
# Figure 10 Cyclic voltammogram for the oxidation of SHPs. Conditions: 0.1 mM CH3CN (0.1 M Bu4NBF4); potentials vs. Ag/AgCl; work electrode: GC; scan rate: 0.1 V/s.
Oxidation potential [5] [V],SMILES,IC50 [1] [µM],IC50 [2] [µM],IC50 [3] [µM],melting point [°C],IC50 [4] [µM]
–,COP(=O)(OC)C(c1cc(C(C)(C)C)c(O)c(C(C)(C)C)c1)c1ccc(NC(=S)Nc2ccccc2)cc1NC(=S)Nc1ccccc1 (stereo not shown) [19a],> 70,> 70,> 70,207 to 208,> 70
1.60,O=C(Nc1ccccc1)Nc1ccccc1 [diphenyl urea],–,–,–,–,–
~1.45,Cc1cc(C(C)(C)C)c(O)c(C(C)(C)C)c1 [ionol],–,–,–,–,–
